Laboratory results published in PMC3480797 (Indian Journal of Pharmacology, 2012).

Experiments:
[1] = format: in vivo, rats; details: rat, oral nimodipine 12 mg/kg
[2] = format: in vivo, rats; details: rat, i.v. nimodipine 3 mg/kg, with pravastatin 0.3 and 1 mg/kg
P-gp = P-gp (Homo sapiens, UniProt P08183); assay: Rhodamine-123 retention assay in P-gp overexpressing MCF-7/ADR cells; format: cell-based; details: 10 to 100 μM, 90 min, 20 μM rhodamine-123, MCF-7/ADR cells
human CYP3A4 = human CYP3A4 (Homo sapiens, UniProt P08684); assay: biochemical
Chain of human CYP3A4 (P08684 whole entry): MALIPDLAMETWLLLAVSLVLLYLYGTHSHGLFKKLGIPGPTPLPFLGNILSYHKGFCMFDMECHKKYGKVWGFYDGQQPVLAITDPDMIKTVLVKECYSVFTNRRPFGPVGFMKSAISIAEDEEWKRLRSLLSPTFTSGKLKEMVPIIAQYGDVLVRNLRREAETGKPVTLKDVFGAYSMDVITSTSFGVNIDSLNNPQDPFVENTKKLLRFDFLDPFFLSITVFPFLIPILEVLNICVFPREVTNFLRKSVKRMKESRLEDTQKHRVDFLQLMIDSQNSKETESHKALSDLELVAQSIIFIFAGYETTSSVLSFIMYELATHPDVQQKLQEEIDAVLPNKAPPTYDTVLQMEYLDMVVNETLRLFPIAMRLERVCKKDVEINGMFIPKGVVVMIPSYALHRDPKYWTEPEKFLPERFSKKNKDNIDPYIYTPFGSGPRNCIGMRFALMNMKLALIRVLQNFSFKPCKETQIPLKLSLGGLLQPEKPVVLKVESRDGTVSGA

Chain of P-gp (P08183 whole entry): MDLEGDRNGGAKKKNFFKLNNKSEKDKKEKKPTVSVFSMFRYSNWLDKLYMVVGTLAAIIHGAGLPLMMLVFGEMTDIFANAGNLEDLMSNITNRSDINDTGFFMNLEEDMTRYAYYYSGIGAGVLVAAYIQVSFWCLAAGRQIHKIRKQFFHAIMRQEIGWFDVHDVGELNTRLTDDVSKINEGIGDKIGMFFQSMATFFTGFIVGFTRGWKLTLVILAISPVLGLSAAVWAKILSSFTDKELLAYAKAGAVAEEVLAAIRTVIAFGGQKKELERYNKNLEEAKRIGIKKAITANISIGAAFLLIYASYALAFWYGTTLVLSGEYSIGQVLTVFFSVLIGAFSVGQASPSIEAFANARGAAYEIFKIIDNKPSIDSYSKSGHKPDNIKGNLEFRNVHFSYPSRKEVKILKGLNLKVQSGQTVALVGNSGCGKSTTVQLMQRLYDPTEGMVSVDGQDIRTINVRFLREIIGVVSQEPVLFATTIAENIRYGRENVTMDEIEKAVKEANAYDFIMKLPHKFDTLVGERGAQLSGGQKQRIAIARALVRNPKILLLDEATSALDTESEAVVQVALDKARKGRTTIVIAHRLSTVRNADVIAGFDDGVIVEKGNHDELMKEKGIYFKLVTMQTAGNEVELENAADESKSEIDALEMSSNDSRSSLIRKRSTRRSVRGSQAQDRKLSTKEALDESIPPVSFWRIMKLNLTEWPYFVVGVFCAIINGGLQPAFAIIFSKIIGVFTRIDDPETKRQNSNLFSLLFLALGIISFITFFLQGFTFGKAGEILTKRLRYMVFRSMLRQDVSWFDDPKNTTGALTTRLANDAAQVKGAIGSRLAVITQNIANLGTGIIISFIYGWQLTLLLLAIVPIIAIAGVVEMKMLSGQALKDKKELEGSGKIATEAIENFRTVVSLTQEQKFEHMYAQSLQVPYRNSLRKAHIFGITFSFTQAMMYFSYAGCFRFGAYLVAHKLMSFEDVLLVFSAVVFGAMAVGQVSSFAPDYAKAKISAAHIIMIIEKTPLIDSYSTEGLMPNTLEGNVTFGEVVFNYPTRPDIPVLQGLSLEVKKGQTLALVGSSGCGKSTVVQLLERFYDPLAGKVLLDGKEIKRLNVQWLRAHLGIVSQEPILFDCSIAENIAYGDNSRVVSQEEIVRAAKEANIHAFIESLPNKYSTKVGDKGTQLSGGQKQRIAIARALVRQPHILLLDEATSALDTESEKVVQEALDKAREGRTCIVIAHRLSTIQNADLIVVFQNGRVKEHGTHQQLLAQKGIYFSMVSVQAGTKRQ

Row | SMILES | increase of AUC0-∞ compared with the control group ([1]; with 1 mg/kg pravastatin, P < 0.05) [%] | increase of AB compared with the oral control group ([1]; with pravastatin (1 mg/kg)) [%] | effect of concurrent pravastatin on the pharmacokinetics of i.v. nimodipine [2] | effect on P-gp activity (cellular uptake of rhodamine-123) (P-gp) | IC50 (human CYP3A4) [µM]
1 | COCCOC(=O)C1=C(C)NC(C)=C(C(=O)OC(C)C)C1c1cccc([N+](=O)[O-])c1 (centres unmarked) [nimodipine, Nimodipine] | 30.9 | 31.1 | not affected |  | 
2 | CC[C@H](C)C(=O)O[C@H]1C[C@H](O)C=C2C=C[C@H](C)[C@H](CC[C@@H](O)C[C@@H](O)CC(=O)O)[C@H]21 [pravastatin, Pravastatin] |  |  |  | did not significantly inhibit P-gp activity | 14
